Columns and labels:
Experiment in all cases: Test E greenhouse herbicide test, pre- and postemergence
Assay type in all cases: in vivo
[1] = tested on: arrowleaf sida (Sida rhombifolia)
Procedure, shortened: (§1)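 Compounds in a non-phytotoxic solvent mixture with surfactant were applied preemergence to seeds in silt loam soil and postemergence to 2-18 cm plants (1- to 4-leaf stage) in peat-based medium. After 14 to 21 d in a greenhouse, injury was rated visually against untreated controls on a 0 (no effect) to 100 (complete control) scale.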

[2] = tested on: barnyardgrass (Echinochloa crus-galli)
Procedure, shortened: as §1

[3] = tested on: beggarticks (hairy beggarticks, Bidens pilosa)
Procedure, shortened: as §1

[4] = tested on: crabgrass, large (large crabgrass, Digitaria sanguinalis); conditions: Preemergence
Procedure, shortened: as §1

[5] = tested on: field bindweed (Convolvulus arvensis)
Procedure, shortened: as §1

[6] = tested on: foxtail, giant (giant foxtail, Setaria faberii); conditions: Preemergence
Procedure, shortened: as §1

[7] = tested on: goosegrass (Eleusine indica); conditions: Preemergence
Procedure, shortened: as §1

[8] = tested on: johnsongrass (Sorghum halepense); conditions: Preemergence
Procedure, shortened: as §1

[9] = tested on: kochia (Kochia scoparia)
Procedure, shortened: as §1

[10] = tested on: momingglory (Ipomoea coccinea); conditions: Preemergence
Procedure, shortened: as §1

[11] = tested on: nightshade (eastern black nightshade, Solanum ptycanthum); conditions: Preemergence
Procedure, shortened: as §1

[12] = tested on: nutsedge, yellow (yellow nutsedge, Cyperus esculentus); conditions: Preemergence
Procedure, shortened: as §1

[13] = tested on: panicum, fall (fall panicum, Panicum dichotomiflorum)
Procedure, shortened: as §1

[14] = tested on: ragweed (common ragweed, Ambrosia elatior)
Procedure, shortened: as §1

[15] = tested on: sandbur (southem sandbur, Cenchrus echinatus)
Procedure, shortened: as §1

[16] = tested on: surinam grass (Brachiaria decumbens); conditions: Preemergence
Procedure, shortened: as §1

[17] = tested on: velvetleaf (Abutilon theophrasti); conditions: Preemergence
Procedure, shortened: as §1

[18] = 62 g ai/ha, Postemergence, scale 0 to 100 (0 no effect, 100 complete control)
[19] = 62 g ai/ha, Preemergence, scale 0 to 100 (0 no effect, 100 complete control)
[20] = 125 g ai/ha, Postemergence, scale 0 to 100 (0 no effect, 100 complete control)
[21] = 125 g ai/ha, Preemergence, scale 0 to 100 (0 no effect, 100 complete control)
[22] = 250 g ai/ha, Postemergence, scale 0 to 100 (0 no effect, 100 complete control)
[23] = Postemergence, 31 g ai/ha, visual, scale 0 no effect to 100 complete control
[24] = Preemergence, 31 g ai/ha, scale 0 to 100, 0 no effect, 100 complete control
[25] = Preemergence, 250 g ai/ha, visual, scale 0 no effect to 100 complete control
[26] = 62 g ai/ha, scale 0 to 100 (0 no effect, 100 complete control)
[27] = 125 g ai/ha, scale 0 to 100 (0 no effect, 100 complete control)
[28] = 31 g ai/ha, scale 0 to 100, 0 no effect, 100 complete control
[29] = 250 g ai/ha, visual, scale 0 no effect to 100 complete control

## Cc1nn(C)c(=O)c(-c2ccc(Br)c3ccccc23)c1O [Compound 75]
[1]; [18]
  Plant response rating, Arrowleaf Sida: 70
[1]; [19]
  Plant response rating, Arrowleaf Sida: 75
[1]; [20]
  Plant response rating, Arrowleaf Sida: 80
[1]; [21]
  Plant response rating, Arrowleaf Sida: 90
[1]; [22]
  Plant response rating, Arrowleaf Sida: 80
[1]; [23]
  Plant response rating, Arrowleaf Sida: 70
[1]; [24]
  Plant response rating, Arrowleaf Sida: 50
[1]; [25]
  Plant response rating, Arrowleaf Sida: 98
[2]; [18]
  Plant response rating, Barnyardgrass: 30
[2]; [19]
  Plant response rating, Barnyardgrass: 20
[2]; [20]
  Plant response rating, Barnyardgrass: 25
[2]; [21]
  Plant response rating, Barnyardgrass: 35
[2]; [22]
  Plant response rating, Barnyardgrass: 30
[2]; [23]
  Plant response rating, Barnyardgrass: 20
[2]; [24]
  Plant response rating, Barnyardgrass: 20
[2]; [25]
  Plant response rating, Barnyardgrass: 65
[3]; [18]
  Plant response rating, Beggarticks: 95
[3]; [19]
  Plant response rating, Beggarticks: 80
[3]; [20]
  Plant response rating, Beggarticks: 100
[3]; [21]
  Plant response rating, Beggarticks: 100
[3]; [22]
  Plant response rating, Beggarticks: 100
[3]; [23]
  Plant response rating, Beggarticks: 100
[3]; [24]
  Plant response rating, Beggarticks: 35
[3]; [25]
  Plant response rating, Beggarticks: 100
[4]; [26]
  Plant response rating, Crabgrass, Large: 0
[4]; [27]
  Plant response rating, Crabgrass, Large: 0
[4]; [28]
  Plant response rating, Crabgrass, Large: 0
[4]; [29]
  Plant response rating, Crabgrass, Large: 30
[5]; [18]
  Plant response rating, Field Bindweed: 90
[5]; [19]
  Plant response rating, Field Bindweed: 5
[5]; [20]
  Plant response rating, Field Bindweed: 80
[5]; [21]
  Plant response rating, Field Bindweed: 100
[5]; [22]
  Plant response rating, Field Bindweed: 85
[5]; [23]
  Plant response rating, Field Bindweed: 85
[5]; [24]
  Plant response rating, Field Bindweed: 0
[5]; [25]
  Plant response rating, Field Bindweed: 98
[6]; [26]
  Plant response rating, Foxtail, Giant: 5
[6]; [27]
  Plant response rating, Foxtail, Giant: 35
[6]; [28]
  Plant response rating, Foxtail, Giant: 0
[6]; [29]
  Plant response rating, Foxtail, Giant: 75
[7]; [26]
  Plant response rating, Goosegrass: 0
[7]; [27]
  Plant response rating, Goosegrass: 0
[7]; [28]
  Plant response rating, Goosegrass: 0
[7]; [29]
  Plant response rating, Goosegrass: 5
[8]; [26]
  Plant response rating, Johnsongrass: 0
[8]; [27]
  Plant response rating, Johnsongrass: 10
[8]; [28]
  Plant response rating, Johnsongrass: 0
[8]; [29]
  Plant response rating, Johnsongrass: 15
[9]; [18]
  Plant response rating, Kochia: 98
[9]; [19]
  Plant response rating, Kochia: 100
[9]; [20]
  Plant response rating, Kochia: 100
[9]; [21]
  Plant response rating, Kochia: 100
[9]; [22]
  Plant response rating, Kochia: 100
[9]; [23]
  Plant response rating, Kochia: 90
[9]; [24]
  Plant response rating, Kochia: 98
[9]; [25]
  Plant response rating, Kochia: 100
[10]; [26]
  Plant response rating, Morningglory: 30
[10]; [27]
  Plant response rating, Morningglory: 60
[10]; [28]
  Plant response rating, Morningglory: 0
[10]; [29]
  Plant response rating, Morningglory: 100
[11]; [26]
  Plant response rating, Nightshade: 0
[11]; [27]
  Plant response rating, Nightshade: 90
[11]; [28]
  Plant response rating, Nightshade: 0
[11]; [29]
  Plant response rating, Nightshade: 100
[12]; [26]
  Plant response rating, Nutsedge, Yellow: 10
[12]; [27]
  Plant response rating, Nutsedge, Yellow: 70
[12]; [28]
  Plant response rating, Nutsedge, Yellow: 0
[12]; [29]
  Plant response rating, Nutsedge, Yellow: 65
[13]; [18]
  Plant response rating, Panicum, Fall: 40
[13]; [19]
  Plant response rating, Panicum, Fall: 50
[13]; [20]
  Plant response rating, Panicum, Fall: 50
[13]; [21]
  Plant response rating, Panicum, Fall: 80
[13]; [22]
  Plant response rating, Panicum, Fall: 60
[13]; [23]
  Plant response rating, Panicum, Fall: 50
[13]; [24]
  Plant response rating, Panicum, Fall: 10
[13]; [25]
  Plant response rating, Panicum, Fall: 90
[14]; [18]
  Plant response rating, Ragweed: 70
[14]; [19]
  Plant response rating, Ragweed: 65
[14]; [20]
  Plant response rating, Ragweed: 60
[14]; [21]
  Plant response rating, Ragweed: 80
[14]; [22]
  Plant response rating, Ragweed: 90
[14]; [23]
  Plant response rating, Ragweed: 55
[14]; [24]
  Plant response rating, Ragweed: 35
[14]; [25]
  Plant response rating, Ragweed: 100
[15]; [18]
  Plant response rating, Sandbur: 20
[15]; [19]
  Plant response rating, Sandbur: 10
[15]; [20]
  Plant response rating, Sandbur: 20
[15]; [21]
  Plant response rating, Sandbur: 40
[15]; [22]
  Plant response rating, Sandbur: 30
[15]; [23]
  Plant response rating, Sandbur: 10
[15]; [24]
  Plant response rating, Sandbur: 0
[15]; [25]
  Plant response rating, Sandbur: 70
[16]; [26]
  Plant response rating, Surinam Grass: 35
[16]; [27]
  Plant response rating, Surinam Grass: 60
[16]; [28]
  Plant response rating, Surinam Grass: 5
[16]; [29]
  Plant response rating, Surinam Grass: 90
[17]; [26]
  Plant response rating, Velvetleaf: 85
[17]; [27]
  Plant response rating, Velvetleaf: 100
[17]; [28]
  Plant response rating, Velvetleaf: 35
[17]; [29]
  Plant response rating, Velvetleaf: 98
